Data reported in publication PMC9623506, “Development of a novel peptide inhibitor of subtilisin BPN′” (FEBS Open Bio, 2022).
Where two headings read alike, the source gives them in different places. Positions of bridges follow the written chain, without caps; N, C: chain ends. Residues, ends and D or L forms follow the SMILES beside them. No end group written: not given here.

B1: SSI: Streptomyces subtilisin inhibitor (protein, UniProt P01006 32-144, looked up)
Subtilisin inhibitor: DAPSALYAPSALVLTVGKGVSATTAAPERAVTLTCAPGPSGTHPAAGSACADLAAVGGDLNALTRGEDVMCPMVYDPVLLTVDGVWQGKRVSYERVFSNECEMNAHGSSVFAF
B2: EGL: leech eglin‐C (protein, UniProt P01051 1-70, looked up)
Eglin C: TEFGSELKSFPEVVGKTVDQAREYFTLHYPQYDVYFLPEGSPVTLDLRYNRVRVFYNPGTNVVNHVPHVG

Key:
subtilisin BPN′ [1] = target: T1, subtilisin BPN′ (Bacillus amyloliquefaciens, UniProt P00782); experiment: biochemical; type: biochemical; conditions: for Inhibitory activity / binding in words, by Ki: synthetic substrate N‐suc‐AAPF‐pNA, compared with prototype ASIP or single mutants
T1 construct: purchased Sigma-Aldrich (Tokyo, Japan)
T1 sequence (P00782 108-382): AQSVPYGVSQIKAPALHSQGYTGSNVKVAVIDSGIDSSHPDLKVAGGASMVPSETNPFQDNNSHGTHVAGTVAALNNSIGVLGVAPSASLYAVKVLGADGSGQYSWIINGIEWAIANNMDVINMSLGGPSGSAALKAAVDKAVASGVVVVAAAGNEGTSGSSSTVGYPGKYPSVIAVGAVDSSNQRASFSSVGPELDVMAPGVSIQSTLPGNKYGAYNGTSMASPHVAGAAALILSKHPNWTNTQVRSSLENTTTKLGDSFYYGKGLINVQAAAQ
Procedure: Subtilisin BPN′ and N‐succinyl‐Ala‐Ala‐Pro‐Phe‐p‐nitroanilide (N‐suc‐AAPF‐pNA) were purchased from Sigma‐Aldrich (Tokyo, Japan). The oligopeptides used in this study were synthesized by Eurofins Genomics (Tokyo, Japan). The formation of an S‐S bond in each peptide was accomplished by incubating an equimolar amount of cystine with the peptide, and the concentrations of the oxidized peptides were determined by amino acid analyses after hydrolysis of the peptide with 6 M HCl at 110 °C for 24 h in vacuo.
The inhibitory activities of peptides against subtilisin BPN′ were preliminarily measured using the casein‐Folin method. First, casein was incubated with subtilisin BPN′ in the absence or presence of various molar ratios of synthetic peptides at 37 °C and pH 7.0 for 10 min. Trichloroacetic acid was added to the reaction mixture to precipitate the undigested casein, and the supernatant was mixed with sodium carbonate and Folin's phenol reagent. The absorbance at 660 nm was then measured to determine the amount of peptide obtained by digestion. Inhibitory activity was defined as the reduction in the amount of peptides derived from the enzymatic digestion of casein in the presence of a synthetic peptide when compared to the amount of peptides in the absence of synthetic peptides. To determine the K i values, the proteolytic activities of subtilisin BPN′ in the presence of various molar ratios of synthetic peptides were measured using a synthetic substrate, N‐suc‐AAPF‐pNA, as described previously, and then, the K i values were calculated by nonlinear curve fitting using the Morrison equation [13].

subtilisin BPN′ [2] = target: T1, subtilisin BPN′; conditions: against subtilisin BPN′; cited from earlier work
subtilisin BPN′ [3] = target: T1, subtilisin BPN′; experiment: ASIP without a disulfide bond with subtilisin BPN′: inhibition and cleavage; type: biochemical
Description: To clarify the relationship between disulfide bond formation and its activity as a subtilisin inhibitor, we measured the inhibitory activities of ASIP with or without a disulfide bond. […] The inhibitory properties of the oxidized form of ASIP were then investigated.

subtilisin Carlsberg = conditions: against subtilisin Carlsberg; cited from earlier work
Description: Table 3 Proteinaceous subtilisin inhibitors. Amino acid residue lengths, sequences from the P4 to P4′ positions, and K i values against subtilisin BPN′ or Carlsberg of the inhibitors are listed. The most conserved residues at each position are shown in bold font. Residue numbers at the P1 position are indicated by superscript numbers.

Row | Molecule | Ki (subtilisin BPN′ [1]) | other results
1 | CC(C)C[C@@H]1NC(=O)[C@@H](NC(=O)[C@H](CO)NC(=O)[C@H](Cc2ccccc2)NC(=O)[C@H](CC(=O)O)NC(=O)[C@@H](N)CO)CSSC[C@@H](C(=O)N[C@@H](CCCNC(=N)N)C(=O)N[C@H](C(=O)O)[C@@H](C)O)NC(=O)CNC(=O)[C@H](CCC(=O)O)NC(=O)[C@H](CO)NC1=O [ASIP] (H-SDFSCLSEGCRT-OH; disulfide 5-10) | 13 ± 1.64 nM | 
2 | CC(C)C[C@@H]1NC(=O)[C@@H](NC(=O)[C@H](CO)NC(=O)[C@H](Cc2ccccc2)NC(=O)[C@H](CC(=O)O)NC(=O)[C@@H](N)CO)CSSC[C@@H](C(=O)N[C@@H](CCCNC(=N)N)C(=O)N[C@@H](C)C(=O)O)NC(=O)CNC(=O)[C@H](CCC(=O)O)NC(=O)[C@H](C)NC1=O [S7A + T12A] (H-SDFSCLAEGCRA-OH; disulfide 5-10) | 2.72 ± 0.04 nM | 
3 | CC(C)C[C@@H]1NC(=O)[C@@H](NC(=O)[C@H](CO)NC(=O)[C@H](Cc2ccccc2)NC(=O)[C@H](CC(=O)O)NC(=O)[C@@H](N)CO)CSSC[C@@H](C(=O)N[C@@H](CCCNC(=N)N)C(=O)N[C@@H](CCCCN)C(=O)O)NC(=O)CNC(=O)[C@H](CCC(=O)O)NC(=O)[C@H](C)NC1=O [S7A + T12K] (H-SDFSCLAEGCRK-OH; disulfide 5-10) | 0.3 ± 0.02 nM | 
4 | CC(C)C[C@@H]1NC(=O)[C@@H](NC(=O)[C@H](CO)NC(=O)[C@H](Cc2ccccc2)NC(=O)[C@H](CC(=O)O)NC(=O)[C@@H](N)CO)CSSC[C@@H](C(=O)N[C@@H](CCCNC(=N)N)C(=O)N[C@H](C(=O)O)[C@@H](C)O)NC(=O)CNC(=O)[C@H](CCC(=O)O)NC(=O)[C@H](C)NC1=O [S7A] (H-SDFSCLAEGCRT-OH; disulfide 5-10) | 2.58 ± 0.2 nM | 
5 | CC(C)C[C@@H]1NC(=O)[C@@H](NC(=O)[C@H](CO)NC(=O)[C@H](Cc2ccccc2)NC(=O)[C@H](CC(=O)O)NC(=O)[C@@H](N)CO)CSSC[C@@H](C(=O)N[C@@H](CCCNC(=N)N)C(=O)NCC(=O)O)NC(=O)CNC(=O)[C@H](CCC(=O)O)NC(=O)CNC1=O [S7G + T12G] (H-SDFSCLGEGCRG-OH; disulfide 5-10) | 7.73 ± 0.34 nM | 
6 | CC(C)C[C@@H]1NC(=O)[C@@H](NC(=O)[C@H](CO)NC(=O)[C@H](Cc2ccccc2)NC(=O)[C@H](CC(=O)O)NC(=O)[C@@H](N)CO)CSSC[C@@H](C(=O)N[C@@H](CCCNC(=N)N)C(=O)N[C@H](C(=O)O)[C@@H](C)O)NC(=O)CNC(=O)[C@H](CCC(=O)O)NC(=O)CNC1=O [S7G] (H-SDFSCLGEGCRT-OH; disulfide 5-10) | 5.14 ± 0.3 nM | 
7 | CC(C)C[C@@H]1NC(=O)[C@@H](NC(=O)[C@H](CO)NC(=O)[C@H](Cc2ccccc2)NC(=O)[C@H](CC(=O)O)NC(=O)[C@@H](N)CO)CSSC[C@@H](C(=O)N[C@@H](CCCNC(=N)N)C(=O)N[C@@H](C)C(=O)O)NC(=O)CNC(=O)[C@H](CCC(=O)O)NC(=O)[C@H](CO)NC1=O [T12A] (H-SDFSCLSEGCRA-OH; disulfide 5-10) | 17.4 ± 1.42 nM | 
8 | CC(C)C[C@@H]1NC(=O)[C@@H](NC(=O)[C@H](CO)NC(=O)[C@H](Cc2ccccc2)NC(=O)[C@H](CC(=O)O)NC(=O)[C@@H](N)CO)CSSC[C@@H](C(=O)N[C@@H](CCCNC(=N)N)C(=O)N[C@@H](CC(=O)O)C(=O)O)NC(=O)CNC(=O)[C@H](CCC(=O)O)NC(=O)[C@H](CO)NC1=O [T12D] (H-SDFSCLSEGCRD-OH; disulfide 5-10) | 23.1 ± 3.35 nM | Inhibitory activity / binding in words, by Ki (subtilisin BPN′ [1]): decreased the inhibitory activity
9 | CC(C)C[C@@H]1NC(=O)[C@@H](NC(=O)[C@H](CO)NC(=O)[C@H](Cc2ccccc2)NC(=O)[C@H](CC(=O)O)NC(=O)[C@@H](N)CO)CSSC[C@@H](C(=O)N[C@@H](CCCNC(=N)N)C(=O)NCC(=O)O)NC(=O)CNC(=O)[C@H](CCC(=O)O)NC(=O)[C@H](CO)NC1=O [T12G] (H-SDFSCLSEGCRG-OH; disulfide 5-10) | 10.6 ± 0.55 nM | 
10 | CC(C)C[C@@H]1NC(=O)[C@@H](NC(=O)[C@H](CO)NC(=O)[C@H](Cc2ccccc2)NC(=O)[C@H](CC(=O)O)NC(=O)[C@@H](N)CO)CSSC[C@@H](C(=O)N[C@@H](CCCNC(=N)N)C(=O)N[C@@H](CCCCN)C(=O)O)NC(=O)CNC(=O)[C@H](CCC(=O)O)NC(=O)[C@H](CO)NC1=O [T12K] (H-SDFSCLSEGCRK-OH; disulfide 5-10) | 5.43 ± 0.29 nM | Inhibitory activity / binding in words, by Ki (subtilisin BPN′ [1]): significantly higher inhibition and binding affinity
11 | CC(C)C[C@H](NC(=O)[C@H](CCCNC(=N)N)NC(=O)[C@@H]1CSSC[C@H](NC(=O)[C@H](CO)NC(=O)[C@H](Cc2ccccc2)NC(=O)[C@H](CC(=O)O)NC(=O)[C@@H](N)CO)C(=O)N[C@@H](CC(C)C)C(=O)N[C@@H](CO)C(=O)N[C@@H](CCC(=O)O)C(=O)NCC(=O)N1)C(=O)O [T12L] (H-SDFSCLSEGCRL-OH; disulfide 5-10) | 12.9 ± 1.02 nM | 
12 | CC(C)C[C@@H]1NC(=O)[C@@H](NC(=O)[C@H](CO)NC(=O)[C@H](Cc2ccccc2)NC(=O)[C@H](CC(=O)O)NC(=O)[C@@H](N)CO)CSSC[C@@H](C(=O)N[C@@H](CCCNC(=N)N)C(=O)N[C@@H](CCCNC(=N)N)C(=O)O)NC(=O)CNC(=O)[C@H](CCC(=O)O)NC(=O)[C@H](CO)NC1=O [T12R] (H-SDFSCLSEGCRR-OH; disulfide 5-10) | 4.41 ± 0.24 nM | Inhibitory activity / binding in words, by Ki (subtilisin BPN′ [1]): significantly higher inhibition and binding affinity
13 | OMTKY3: turkey ovomucoid third domain |  | Ki (subtilisin BPN′ [2]): 0.023 nM
14 | SDFSCLSEGCRT (cysteine pairing not given here) [ASIP without a disulfide bond, ASIP without the Cys5‐Cys10 disulfide bond] |  | Inhibitory activity against subtilisin BPN′ in words (subtilisin BPN′ [3]; ASIP without a disulfide bond, substrate not stated): lacked inhibitory activity; Cleavage by subtilisin BPN′ (subtilisin BPN′ [3]; reduced / linear form of ASIP, cleaved at the peptide bond between Leu6 and Ser7): specifically cleaved
15 | marinostatin (FATMRYPSDSDE) [MST] |  | Ki (subtilisin BPN′ [2]): 1.5 nM
16 | B1 |  | Ki (subtilisin BPN′ [2]): 0.005 nM
17 | B2 |  | Ki (subtilisin Carlsberg): 0.15 nM
